The source of these data is PMC5706701, “Development of a homogenous high-throughput assay for inositol hexakisphosphate kinase 1 activity” (PLoS ONE, 2017).

Structures can show the parent of a compound that is named as a salt. Where two headings read alike, the source gives them in different places.

The assay addresses T1, Human IP6K1 (Homo sapiens, UniProt Q92551).
T1 construct: GST (N, cleaved yes); made in house; host or cells: C43 E. coli, pGEX-6P-2
Nature of the assay: IP6K1 high-throughput screen of the Sigma LOPAC (ADP-Glo Max, single point).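 Also: final compound concentration 10µM in 5% DMSO.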 Type of assay: biochemical. In general terms: In ADP-Glo the light output rises with the ADP produced.

[1] abbreviates: LOPAC single-point screen, ADP-Glo Max raw signal per well.
The mark [2] stands for this setting: LOPAC single-point screen, Z-score from raw signal with plate average and StDev.
Where [3] appears, read: LOPAC single-point screen, Z-score against plate average and StDev.
The mark [4] stands for this setting: LOPAC single-point screen, ADP-Glo Max luminescence raw signal per well.
Where [5] appears, read: LOPAC single-point screen, Z-score from plate average and StDev.
[6] abbreviates: Sigma LOPAC single-point screen, ADP-Glo Max raw signal per well.
The mark [7] stands for this setting: Sigma LOPAC single-point screen, Z-score from plate average and StDev.
Setting [8] is: LOPAC single-point screen, Z-score relative to plate average and StDev.

T1 sequence (Q92551 whole entry): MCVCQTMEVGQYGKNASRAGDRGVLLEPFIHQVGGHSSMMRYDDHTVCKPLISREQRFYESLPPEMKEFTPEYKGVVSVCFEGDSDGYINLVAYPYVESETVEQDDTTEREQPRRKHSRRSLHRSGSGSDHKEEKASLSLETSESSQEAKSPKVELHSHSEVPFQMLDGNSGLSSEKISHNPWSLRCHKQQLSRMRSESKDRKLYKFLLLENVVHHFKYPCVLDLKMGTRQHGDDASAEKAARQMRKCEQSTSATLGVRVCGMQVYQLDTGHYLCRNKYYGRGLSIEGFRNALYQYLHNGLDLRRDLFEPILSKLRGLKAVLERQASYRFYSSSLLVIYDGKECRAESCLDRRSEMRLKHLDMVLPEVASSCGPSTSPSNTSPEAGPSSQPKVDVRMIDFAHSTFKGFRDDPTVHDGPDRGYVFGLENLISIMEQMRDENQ

For the compound `N[C@@H](Cn1ccc(=O)[nH]c1=O)C(=O)O` [S(-)-Willardiine], the “Raw Signal” value under setting [1] came to 55281. Besides, under setting [2], the Z-score is -0.1443.
As for `CSc1ccc2c(c1)N(CCC1CCCCN1C)c1ccccc1S2` (stereo not drawn) [Thioridazine hydrochloride], the “Raw Signal” value under setting [1] came out at 57676. Under setting [3], this compound came in with a Z-score of 0.321.
For `CCCCCCCCCCCCCCCC(=O)NCC(COP(=O)([O-])OCC[N+](C)(C)C)OCC` (racemic), the “Raw Signal” value under setting [4] was found to be 63126. Under setting [5], this compound yielded a Z-score of 1.616.
Turning to `CC[N+](C)(C)c1cccc(O)c1` [Edrophonium chloride], under setting [6], the “Raw Signal” value is listed as 58129. This compound also showed a Z-score under setting [7] of 0.6015.
As to `Brc1ccc([C@H]2CN3CCSC3=N2)cc1.O=C(O)C(=O)O` [S(-)-p-Bromotetramisole oxalate], under setting [6], the “Raw Signal” value is 61891. In addition, the Z-score under setting [7] came out at 0.7006.
As for `C[N+](C)(C)CC(=O)O` [Betaine hydrochloride], the “Raw Signal” value under setting [6] turned out to be 62144. The Z-score under setting [7] is on record as 0.7452.
As to `CC(C)NCC(O)COc1cccc2ccccc12.Cl` (racemic) [(±)-Propranolol hydrochloride], the “Raw Signal” value under setting [1] is listed as 53827. The Z-score under setting [2] is given as -0.09519.
Regarding `CC(=O)c1ccc(S(=O)(=O)NC(=O)NC2CCCCC2)cc1` [Acetohexamide], under setting [6], the “Raw Signal” value turned out to be 64165. For the same compound, the Z-score under setting [7] is reported as 1.101.
`C[C@@H](NC(=O)/C(C#N)=C/c1ccc(O)c(O)c1)c1ccccc1` [Tyrphostin AG 527]: the “Raw Signal” value under setting [1] was 54153. The Z-score under setting [2] is -0.3635.
On to `CN1CCN(c2nc3cc(C(F)(F)F)ccc3n3cccc23)CC1.O=C(O)/C=C\C(=O)O` [CGS-12066A maleate], for which, under setting [6], the “Raw Signal” value is 58347. In addition, the Z-score under setting [7] was 0.6458.
Take `COc1ccc2c(c1OC)C(=O)O[C@@H]2[C@H]1c2c(cc3c(c2OC)OCO3)CCN1C.Cl` [Noscapine hydrchloride]: the “Raw Signal” value under setting [1] was 53510. Also, under setting [2], the Z-score is listed as -0.1485.
The corresponding values for `Cl.FC(F)(F)c1cc(CO[C@H]2CCCN[C@H]2c2ccccc2)cc(C(F)(F)F)c1` [L-733,060 hydrochloride] are 52038 and -0.3958.
Turning to `CC(NCCc1ccc(O)cc1)C(O)c1ccc(O)cc1` (stereo not drawn) [Ritodrine hydrochloride], the “Raw Signal” value under setting [6] was 59316. The same compound yielded a Z-score under setting [7] of 0.6396.
For the compound `COC(=O)N1CCN(C(=O)Cc2ccc(Cl)c(Cl)c2)C(CN2CCCC2)C1.O=C(O)/C=C/C(=O)O` (stereo not drawn) [GR-89696 fumarate], the “Raw Signal” value under setting [1] is given as 54440. The Z-score under setting [2] is -0.1477.
On to `NC(=O)C(=O)O` [Sodium Oxamate], for which, under setting [1], the “Raw Signal” value was found to be 56283. This compound had a Z-score under setting [3] of 0.3175.
As for `O=[N+]([O-])c1cc2nc(O)c(O)nc2cc1[N+](=O)[O-]` [DNQX], the “Raw Signal” value under setting [4] is reported as 50774. For the same compound, the Z-score under setting [8] is -0.8922.
In the case of `CN(C)CCCCSC(=N)N.Cl.Cl` [SKF 91488 dihydrochloride], the “Raw Signal” value under setting [1] turned out to be 55411. Also, under setting [2], the Z-score is reported as -0.1191.
As to `NC(=O)N1c2ccccc2C=Cc2ccccc21` [Carbamazepine], under setting [6], the “Raw Signal” value was 60604. This compound also returned a Z-score under setting [7] of 0.4739.
With `Cc1ccc(/C(=C\CN2CCCC2)c2ccccn2)cc1.Cl` [Triprolidine hydrochloride], the “Raw Signal” value under setting [1] is 57463. Besides, the Z-score under setting [3] turned out to be 0.2796.
In the case of `C[C@@H]1C(=O)NC2=Nc3cccc(Cl)c3CN21` [Quazinone], under setting [1], the “Raw Signal” value is reported as 53682. Under setting [2], the Z-score is reported as -0.455.
On to `N#C/C(=C\c1ccc(O)c(O)c1)C(=O)N1CCc2ccccc21` [Tyrphostin AG 528], for which the “Raw Signal” value under setting [6] stood at 58882. This compound also displayed a Z-score under setting [7] of 0.5553.
Take `CCCCS(=N)(=O)CC[C@H](N)C(=O)O` (stereo partly drawn) [L-Buthionine-sulfoximine]: the “Raw Signal” value under setting [6] was 61284. The compound further came in with a Z-score under setting [7] of 0.5937.
Regarding `Cl.Cl.Cn1cnc(CCN)c1` [1-Methylhistamine dihydrochloride], the “Raw Signal” value under setting [1] is recorded as 52776. Under setting [2], the Z-score was -0.2718.
On to `CC1=C[C@@H]2c3cccc4[nH]cc(c34)C[C@H]2N(C)C1` [Agroclavine], for which, under setting [4], the “Raw Signal” value is listed as 53866. Under setting [8], the Z-score is listed as -0.7128.
As to `CC[C@H](C)C(=O)O[C@H]1CCC=C2C=C[C@H](C)[C@H](CC[C@@H]3C[C@@H](O)CC(=O)O3)[C@H]21` [Mevastatin], under setting [4], the “Raw Signal” value is given as 50064. Moreover, under setting [8], the Z-score is recorded as -0.7275.
In the case of `Cc1cc(NC(=O)Nc2ccc3c(ccn3C)c2)sn1` [SB 204741], the “Raw Signal” value under setting [1] turned out to be 55947. The Z-score under setting [2] is reported as -0.3463.
Turning to `Cl.OC1CCCCC1N1CCC(c2ccccc2)CC1` (racemic) [(±)-Vesamicol hydrochloride], under setting [4], the “Raw Signal” value was determined as 53363. Further, the Z-score under setting [8] was -0.5169.
As to `Cc1nc(N=Nc2cc(S(=O)(=O)[O-])c3cc([N+](=O)[O-])cc(S(=O)(=O)[O-])c3c2)c(COP(=O)([O-])[O-])c(C=O)c1O.[Na+].[Na+].[Na+].[Na+]` [PPNDS tetrasodium], under setting [4], the “Raw Signal” value worked out at 31816. The Z-score under setting [8] is -3.794.
As for `COc1ccccc1N1CCN(CCCNc2cc(=O)n(C)c(=O)n2C)CC1` [Urapidil hydrochloride], under setting [1], the “Raw Signal” value worked out at 54926. The Z-score under setting [2] is on record as -0.2133.
Turning to `CN1CCC(=C2c3ccccc3CC(=O)c3sccc32)CC1` [Ketotifen fumarate], under setting [4], the “Raw Signal” value turned out to be 50782. Also, under setting [8], the Z-score is listed as -0.6068.
Take `Cc1[nH]c(=O)c(C#N)cc1-c1ccncc1` [Milrinone]: the “Raw Signal” value under setting [1] came to 53863. Further, under setting [3], the Z-score is -0.08914.
In the case of `CC1CCN=C(N)S1.Cl` (racemic) [(±)-AMT hydrochloride], the “Raw Signal” value under setting [6] came to 65458. Moreover, the Z-score under setting [7] was 1.329.
Consider `Cl.NCC#Cc1ccccc1` [3-Phenylpropargylamine hydrochloride], for which the “Raw Signal” value under setting [4] is 53264. The Z-score under setting [8] is -0.5362.
The corresponding values for `NC(=O)c1ccccc1` [Benzamide] are 54873 and -0.5354.
With `COC(=O)C1=C(C)NC(C)=C(C(=O)OCCN(C)Cc2ccccc2)C1c1cccc([N+](=O)[O-])c1` (stereo not drawn) [Nicardipine hydrochloride], under setting [4], the “Raw Signal” value is 66364. Further, the Z-score under setting [5] is 2.011.
For `Cn1cnc2c(NC3CCCC3)ncnc21` [N6-Cyclopentyl-9-methyladenine], the “Raw Signal” value under setting [1] came out at 52967. Also, under setting [2], the Z-score is reported as -0.2397.
Take `COc1cccc(OC)c1OCCNCC1CSc2ccccc2O1` (stereo not drawn) [Benoxathian hydrochloride]: the “Raw Signal” value under setting [1] is listed as 57648. Moreover, the Z-score under setting [3] was -0.04669.
`CCN(CCCl)Cc1ccccc1Br.Cl` [DSP-4 hydrochloride]: under setting [1], the “Raw Signal” value was 57186. Under setting [2], the Z-score was -0.1281.
With `Cc1ccccc1N1CCN(S(=O)(=O)CC23CCC(CC2NC(=O)C(N)CCS(C)(=O)=O)C3(C)C)CC1` [L-368,899], the “Raw Signal” value under setting [4] was 50329. The Z-score under setting [8] is on record as -0.6829.
For `Br.Cc1cccc(C2CN(C)CCc3c2cc(O)c(O)c3Cl)c1` (stereo not drawn) [SKF 83959 hydrobromide], the “Raw Signal” value under setting [4] was 52693. Moreover, the Z-score under setting [8] is -0.6471.
Take `CN(C)C(N)=NCCC[C@H](N)C(=O)O.Cl` [N^G,N^G-Dimethylarginine hydrochloride]: the “Raw Signal” value under setting [1] was found to be 52909. Further, the Z-score under setting [2] is recorded as -0.4586.
Consider `COc1cccc(-c2cc(=O)c3ccccc3o2)c1N` [PD 98,059], for which the “Raw Signal” value under setting [1] stood at 54412. The Z-score under setting [2] is on record as -0.3131.
As to `CN1C(C)(C)CCCC1(C)C` [Pempidine tartrate], the “Raw Signal” value under setting [6] is 56899. The same compound yielded a Z-score under setting [7] of 0.421.
Turning to `N#C/C(=C\c1ccc(O)c(O)c1)C(N)=S` [Tyrphostin 47], under setting [4], the “Raw Signal” value is given as 42103. For the same compound, the Z-score under setting [8] is -2.705.
For the compound `CC(C)(C)c1cc(/C=C(\C#N)C(N)=S)cc(C(C)(C)C)c1O` [Tyrphostin AG 879], under setting [1], the “Raw Signal” value was 56085. Under setting [3], this compound had a Z-score of 0.01189.
In the case of `CNC1(C)C2CCC(C2)C1(C)C` (stereo not drawn) [Mecamylamine hydrochloride], under setting [1], the “Raw Signal” value is 55214. This compound also yielded a Z-score under setting [3] of 0.1379.
For the compound `C=CCN1CC[C@]23CCCC[C@H]2[C@H]1Cc1ccc(O)cc13` [Levallorphan tartrate], the “Raw Signal” value under setting [1] was 52542. Besides, under setting [2], the Z-score is -0.3111.
Take `Cc1nc2n(c(=O)c1CCN1CCC(c3noc4cc(F)ccc34)CC1)CCCC2` [Risperidone]: the “Raw Signal” value under setting [4] was 53532. In addition, the Z-score under setting [8] is -0.4841.
For `O=C(O)[C@@H]1[C@H](C(=O)O)[C@H]2CC[C@@H]1O2` [Endothall], under setting [6], the “Raw Signal” value came out at 58370. Moreover, the Z-score under setting [7] was found to be 0.6505.
On to `Nc1ccc(CCNc2ncnc3c2ncn3[C@@H]2O[C@H](CO)[C@@H](O)[C@H]2O)cc1` [N6-2-(4-Aminophenyl)ethyladenosine], for which, under setting [4], the “Raw Signal” value came out at 51199. In addition, the Z-score under setting [8] is -1.183.
Consider `Oc1c2ccccc2c2c3c(cccc13)N=N2` [SP600125], for which the “Raw Signal” value under setting [6] is reported as 57057. For the same compound, under setting [7], the Z-score was 0.3838.
Take `Nn1nnc2ccccc21` [1-Aminobenzotriazole]: the “Raw Signal” value under setting [4] is 53212. For the same compound, the Z-score under setting [8] is listed as -0.828.
In the case of `N=C(N)SCCc1cnc[nH]1` [Imetit dihydrobromide], the “Raw Signal” value is recorded as 60718 and the Z-score stood at 1.063.
On to `C[C@](N)(Cc1ccc(O)cc1)C(=O)O` [L-alpha-Methyl-p-tyrosine], for which, under setting [1], the “Raw Signal” value is 53929. Under setting [3], the Z-score was -0.07805.
